Laboratory results as given in patent US20210255193A1, “LYSINE REACTIVE PROBES AND USES THEREOF” (The Scripps Research Institute, priority 2017, published 2021).

Tests used:
Experiment in all cases: competitive isoTOP-ABPP
Type in all cases: binding
[1] = biological target: T1, ENOPH1 Enolase-phosphatase E1 (Homo sapiens, UniProt Q9UHY7); conditions: for isoTOP-ABPP ratio (R) at liganded lysine Q9UHY7_K111: sol, 231
T1 construct: endogenous in cells; host or cells: MDA-MB-231 (soluble fraction of lysate)
In short: (§1)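 Here, isoTOP-ABPP measures loss of STP-alkyne labeling at individual lysines after fragment exposure in lysate. Activated esters are dosed at 50 μM, guanidinylating agents at 100 μM; the probe follows at 0.1 mM for 1 h. R ≥4 marks a liganded lysine.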

[2] = biological target: T2, FECH Ferrochelatase, mitochondrial (Homo sapiens, UniProt P22830); conditions: for isoTOP-ABPP ratio (R) at liganded lysine P22830_K304: sol, 231
T2 construct: isoTOP-ABPP experiments performed in cell lysates (in vitro); endogenous in cells; host or cells: soluble proteome of human cancer cell lines (MDA-MB-231; Ramos and Jurkat also prepared)
T2 sequence (P22830 55-423): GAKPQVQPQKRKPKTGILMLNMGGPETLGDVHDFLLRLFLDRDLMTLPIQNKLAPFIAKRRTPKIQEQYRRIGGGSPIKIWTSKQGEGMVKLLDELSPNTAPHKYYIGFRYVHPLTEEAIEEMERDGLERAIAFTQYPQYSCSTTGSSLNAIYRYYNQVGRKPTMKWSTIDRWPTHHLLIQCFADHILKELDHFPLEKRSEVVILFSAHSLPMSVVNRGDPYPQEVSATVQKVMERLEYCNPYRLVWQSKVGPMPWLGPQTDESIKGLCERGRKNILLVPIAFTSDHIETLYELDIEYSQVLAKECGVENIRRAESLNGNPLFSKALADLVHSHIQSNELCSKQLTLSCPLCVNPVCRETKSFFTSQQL
In short: as §1

[3] = biological target: T3, MAP2K3 Dual specificity mitogen-activated protein kinase (Homo sapiens, UniProt P46734); conditions: for isoTOP-ABPP ratio (R) at liganded lysine P46734_K93: sol, 231
T3 construct: isoTOP-ABPP experiments performed in cell lysates (in vitro); endogenous in cells; host or cells: soluble proteome of human cancer cell lines (MDA-MB-231; Ramos and Jurkat also prepared)
T3 sequence (P46734 1-347): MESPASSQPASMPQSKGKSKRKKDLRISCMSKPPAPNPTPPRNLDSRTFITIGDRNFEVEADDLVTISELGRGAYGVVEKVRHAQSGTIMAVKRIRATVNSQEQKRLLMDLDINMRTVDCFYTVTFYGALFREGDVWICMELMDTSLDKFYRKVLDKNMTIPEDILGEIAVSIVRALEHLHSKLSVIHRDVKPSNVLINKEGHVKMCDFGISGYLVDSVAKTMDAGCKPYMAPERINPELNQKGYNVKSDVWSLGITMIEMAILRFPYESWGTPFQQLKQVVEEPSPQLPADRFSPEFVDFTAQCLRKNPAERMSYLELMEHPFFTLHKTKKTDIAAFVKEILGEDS
In short: as §1

[4] = biological target: T4, RPL10 60S ribosomal protein L10 (Homo sapiens, UniProt P27635); conditions: for isoTOP-ABPP ratio (R) at liganded lysine P27635_K121: sol, 231
T4 construct: isoTOP-ABPP experiments performed in cell lysates (in vitro); endogenous in cells; host or cells: soluble proteome of human cancer cell lines (MDA-MB-231; Ramos and Jurkat also prepared)
In short: as §1

[5] = biological target: T5, GBAS Protein NipSnap homolog 2 (Homo sapiens, UniProt O75323); conditions: for isoTOP-ABPP ratio (R) at liganded lysine O75323_K75: sol, 231
T5 construct: isoTOP-ABPP experiments performed in cell lysates (in vitro); endogenous in cells; host or cells: MDA-MB-231 soluble lysate
T5 sequence (O75323 24-286): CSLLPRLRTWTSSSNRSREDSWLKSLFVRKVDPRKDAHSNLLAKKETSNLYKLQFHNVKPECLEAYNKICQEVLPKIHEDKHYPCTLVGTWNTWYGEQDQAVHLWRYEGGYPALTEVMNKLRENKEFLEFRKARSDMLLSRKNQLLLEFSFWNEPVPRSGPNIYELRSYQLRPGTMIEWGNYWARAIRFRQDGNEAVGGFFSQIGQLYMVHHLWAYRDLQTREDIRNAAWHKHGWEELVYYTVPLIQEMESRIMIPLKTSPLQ
In short: as §1

T1 sequence (Q9UHY7 whole entry): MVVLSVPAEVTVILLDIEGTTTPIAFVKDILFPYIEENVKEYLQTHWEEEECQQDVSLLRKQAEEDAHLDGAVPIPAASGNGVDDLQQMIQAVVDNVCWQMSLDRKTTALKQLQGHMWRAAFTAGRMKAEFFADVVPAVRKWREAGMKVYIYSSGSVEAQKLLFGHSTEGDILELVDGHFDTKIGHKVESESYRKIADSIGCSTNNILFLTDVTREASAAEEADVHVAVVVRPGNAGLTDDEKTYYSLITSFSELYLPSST

Structure (SMILES)	isoTOP-ABPP ratio (R) at liganded lysine Q9UHY7_K111 ([1]; 50 uM, in vitro)	isoTOP-ABPP ratio (R) at liganded lysine P22830_K304 ([2]; 50 uM, in vitro)	isoTOP-ABPP ratio (R) at liganded lysine P46734_K93 ([3]; 50 uM, in vitro)	isoTOP-ABPP ratio (R) at liganded lysine P27635_K121 ([4]; 50 uM, in vitro)	isoTOP-ABPP ratio (R) at liganded lysine O75323_K75 ([5]; 50 uM, in vitro)	isoTOP-ABPP ratio, lysine Q9UHY7_K111 ([1]; 50 uM_231_sol_in vitro)	isoTOP-ABPP ratio, lysine P22830_K304 ([2]; 50 uM_231_sol_in vitro)	isoTOP-ABPP ratio, lysine P46734_K93 ([3]; 50 uM_231_sol_in vitro)	isoTOP-ABPP ratio, lysine P27635_K121 ([4]; 50 uM_231_sol_in vitro)	isoTOP-ABPP ratio, lysine O75323_K75 ([5]; 50 uM_231_sol_in vitro)	also measured
O=C(CCc1cn(-c2ccccc2)nc1-c1ccccc1)Oc1ccc([N+](=O)[O-])cc1[N+](=O)[O-] [fragment 29, 2,4-Dinitrophenyl 3-(1,3-diphenyl-1H-pyrazol-4-yl)propanoate]	–	–	–	–	–	–	–	–	–	–	isoTOP-ABPP reactivity ratio at lysine Q9UHY7_K111 ([1]; 50 uM, 231 sol, in vitro): 0.8; isoTOP-ABPP reactivity ratio at lysine P22830_K304 ([2]; 50 uM, 231 sol, in vitro): 5.4; isoTOP-ABPP reactivity ratio at lysine P46734_K93 ([3]; 50 uM, 231 sol, in vitro): 0.9; isoTOP-ABPP reactivity ratio at lysine P27635_K121 ([4]; 50 uM, 231 sol, in vitro): 1.4; isoTOP-ABPP reactivity ratio at lysine O75323_K75 ([5]; 50 uM, 231 sol, in vitro): 1.0
O=C(CCc1coc2cc(F)ccc2c1=O)Oc1ccc([N+](=O)[O-])cc1[N+](=O)[O-] [fragment 36, 2,4-Dinitrophenyl 3-(7-fluoro-4-oxo-4H-chromen-3-yl)propanoate]	0.9	2.0	0.9	0.5	20.0	–	–	–	–	–	–
O=C(CC12CC3CC(CC(C3)C1)C2)Oc1ccc([N+](=O)[O-])cc1[N+](=O)[O-] [fragment 38, 2,4-Dinitrophenyl 2-(adamantan-1-yl)acetate]	1.1	1.8	0.9	20.0	1.3	–	–	–	–	–	–
O=C(Oc1ccc([N+](=O)[O-])cc1[N+](=O)[O-])c1ccc(Oc2ccccc2)cc1 [fragment 39, 2,4-Dinitrophenyl 4-phenoxybenzoate]	0.8	1.3	0.8	1.0	20.0	–	–	–	–	–	–
CC(=O)Oc1ccc([N+](=O)[O-])cc1[N+](=O)[O-] [fragment 43, 2,4-Dinitrophenyl acetate]	0.9	1.3	1.0	20.0	1.6	–	–	–	–	–	–
N#Cc1ccc(C(=O)Oc2ccc([N+](=O)[O-])cc2[N+](=O)[O-])cc1 [fragment 44, 2,4-Dinitrophenyl 4-cyanobenzoate]	–	–	–	–	–	0.9	1.1	0.8	0.6	1.1	–
O=C(CCc1ccc2c(c1)OCO2)Oc1ccc([N+](=O)[O-])cc1[N+](=O)[O-] [fragment 45, 2,4-Dinitrophenyl 3-(benzo[d][1,3]dioxol-5-yl)propanoate]	–	–	–	–	–	1.1	1.4	0.9	1.8	5.0	–
O=C(ON1C(=O)CCC1=O)c1cc(C(F)(F)F)cc(C(F)(F)F)c1 [fragment 46, 3,5-Bis(trifluoromethyl)benzoic acid NHS ester]	–	–	–	–	–	1.1	0.9	1.3	0.8	0.9	–
O=C(Oc1c(F)c(F)c(C(F)(F)F)c(F)c1F)c1cc(C(F)(F)F)cc(C(F)(F)F)c1 [fragment 47, 2,3,5,6-Tetrafluoro-4-(trifluoromethyl)phenyl 3,5-bis(trifluoromethyl)benzoate]	–	–	–	–	–	7.8	2.2	1.1	1.1	1.0	–
O=C(Oc1c(F)c(F)cc(F)c1F)c1cc(C(F)(F)F)cc(C(F)(F)F)c1 [fragment 48, 2,3,5,6-Tetrafluorophenyl 3,5-bis(trifluoromethyl)benzoate]	–	–	–	–	–	0.9	1.1	1.1	0.8	0.9	–
COC(=O)NC(=NC(=O)OCC1c2ccccc2-c2ccccc21)n1cccn1 [fragment 49, N-Methoxycarbonyl-N′-9-fluorenylmethoxycarbonyl-pyrazole-1-carboxamidine]	–	–	–	–	–	–	–	–	–	–	isoTOP-ABPP ratio, lysine Q9UHY7_K111 ([1]; 100 uM_231_sol_in vitro): 20.0; isoTOP-ABPP ratio, lysine P22830_K304 ([2]; 100 uM_231_sol_in vitro): 5.3; isoTOP-ABPP ratio, lysine P46734_K93 ([3]; 100 uM_231_sol_in vitro): 6.8; isoTOP-ABPP ratio, lysine P27635_K121 ([4]; 100 uM_231_sol_in vitro): 1.8; isoTOP-ABPP ratio, lysine O75323_K75 ([5]; 100 uM_231_sol_in vitro): 1.7
CC(C)(C)OC(=O)N=C(NC(=O)OC(C)(C)C)n1cccn1 [fragment 50, reference compound]	–	–	–	–	–	–	–	–	–	–	isoTOP-ABPP ratio, lysine Q9UHY7_K111 ([1]; 100 uM_231_sol_in vitro): 15.1; isoTOP-ABPP ratio, lysine P22830_K304 ([2]; 100 uM_231_sol_in vitro): 2.3; isoTOP-ABPP ratio, lysine P46734_K93 ([3]; 100 uM_231_sol_in vitro): 1.8; isoTOP-ABPP ratio, lysine P27635_K121 ([4]; 100 uM_231_sol_in vitro): 1.0; isoTOP-ABPP ratio, lysine O75323_K75 ([5]; 100 uM_231_sol_in vitro): 1.3
